# System: human blood (platelet/fibrin clot)
# Test: Thrombelastography (TEG) clot kinetics in whole blood
# Type: cell-based
# Conditions: Table 4, mean ± SD, n=4, control = normal blood, 'Heparin +' lines in presence of heparin
# Excerpt: Thrombelastography techniques, which are commonly used in the clinical laboratory for monitoring coagulation functions, were utilized. Siliconized Vacutainer tubes (Becton Dickinson, Rutherford, N.J.) were used to collect whole blood. To maintain a ratio of citrate to whole blood of 1:9 (v/v), the tubes contained 3.2% trisodium citrate. Blood samples were placed on a slow speed rocker until TEG analysis.
# Whole Blood Coagulation Analyzer, Model 5000 Thrombelastograph, Hemoscope Corporation, Skokie, Ill., was used. TEG is based on the measurement of the physical viscoelastic characteristics of blood clots. An oscillating plastic cylindrical cuvette (“cup”) and a coaxially suspended stationary piston (“pin”) with a […] clearance between the surfaces are used to monitor clot formation at 37° C. Every 4.5 seconds, with a 1-second mid cycle stationary period, the cup oscillates in either direction, resulting in a frequency of 0.1 Hz. […]
# Different hydrogel polycatioinic matrix micro-composites were evaluated. […]
# A standard global coagulation assay, namely Thrombelastography, uses a total of 5 ml blood from human volunteers. Additionally, the efficiency of the optimal hydrogel compositions that have the shortest Time to Clotting (R) and the strongest clot strength (MA) were evaluated in stopping severe bleeding in a hemorrhage simulation model system. […]
smiles,measurement,value
"NC[C@H]1CC[C@H](C(=O)O)CC1 [tranexamic acid (TXA), tranexamic acid]",MA-Clot Strength,57 ± 4 mm
same,R - Time to Clot initiation,9.0 ± 4 min
